pIC50: −log10 of the molar value. Each block holds one compound with its values, some of them ahead of it.
Columns and labels:
Kuramochi cells RB-WT = experiment: IncuCyte Kuramochi cell proliferation assay, RB-WT; assay type: cell-based; conditions: 72 hours, cell count
Method in brief: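 mApple-H2B-labelled Kuramochi cells were treated with a 10-point, half-log series (top 20 µM) and imaged at 0 and 72 h. Fluorescent nuclei were counted, and the 0–72 h fold change was normalized to DMSO wells. GI50 came from dose-response fits.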

CDK2/Cyclin E1 [1] = target: T1, CDK2/Cyclin E1 (Homo sapiens, UniProt P24941); experiment: ADP-Glo Luminescent Kinase Assay (CDK2/E1-37C); assay type: biochemical; conditions: 0.18 nM CDK2/Cyclin E1, 100 μM ATP, Histone H1, 37° C.; read-out: ADPGLO (CDK2/E1-37C): IC50
Method in brief: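 Activated CDK2/Cyclin E1 (0.18 nM final) preincubated with compound 60 min at 37 °C, then reacted with 100 μM ATP and Histone H1 ([…]) for 90 min at 37 °C in HEPES pH 7.5 buffer. ADP-Glo luminescence normalized to % activity; IC50 from four-parameter fit.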

CDK2/Cyclin E1 [2] = target: T1, CDK2/Cyclin E1; experiment: Caliper LabChip EZ Reader mobility shift assay; assay type: biochemical; conditions: 2.5 nM CDK2/Cyclin E1(14-475), 100 μM ATP, 30 min preincubation; read-out: Caliper Assay (CDK2/CCNE1): IC50
Procedure: Inhibition of CDK2/Cyclin E1 activity in the presence of compounds of the present disclosure was evaluated using a Caliper LabChip® EZ Reader mobility shift assay. In the assay, activated CDK2/Cyclin E1 catalyzes the phosphorylation of a fluorescently tagged peptide 5-FAM-QSPKKG-CONH2 (PerkinElmer, FL Peptide 18) which induces a difference in capillary electrophoresis mobility. The peptide substrate and product were measured, and the conversion ratio was used to determine the inhibition (as % activity and IC50 values) of CDK2/Cyclin E1. Reactions contained 50 mM HEPES pH 7.5, 10 mM MgCl2, 1 mM EDTA, 2 mM DTT, 0.01% Brij35, 0.5 mg/mL BSA, 0.1% DMSO, 2.5 nM CDK2/Cyclin E1(14-475), 100 μM ATP, and 1.5 μM fluorescent peptide substrate.
Dose titrations of inhibitors in 100% DMSO were combined with 3.25 nM CDK2/Cyclin E1(14-475) and 130 μM of ATP in reaction buffer. The mixtures were incubated for 30 minutes before the addition of fluorescent peptide substrate to initiate the kinase reaction. The final conditions were 2.5 nM CDK2/Cyclin E1(14-475), 100 μM ATP, and 1.5 μM fluorescent peptide. The reactions were stopped after 100 minutes with the addition of EDTA (6 mM final EDTA concentration). The stopped reactions were analyzed on a Caliper LabChip® EZ Reader 11. The conversion ratios were normalized to yield % activity, plotted against compound concentration, and fit to a four-parameter equation to determine the IC50 for each compound.

Structure (SMILES): CC1(C)C[C@@H]1C(=O)N1CC2(CN(C(=O)c3cncs3)CC2COCc2cccc(-c3ccc(C(F)(F)F)cc3)c2C(=O)O)C1 (stereo partly drawn) [Compound I-4, 3-(((2-((S)-2,2-dimethylcyclopropane-1-carbonyl)-6-(thiazole-5-carbonyl)-2,6-diazaspiro[3.4]octan-8-yl)methoxy)methyl)-4′-(trifluoromethyl)-[1,1′-biphenyl]-2-carboxylic acid]
pIC50 (Kuramochi cells RB-WT): < 5.00 | pIC50 (CDK2/Cyclin E1 [1]): 5.30 to 6.30 | pIC50 (CDK2/Cyclin E1 [2]): > 8.00

Structure (SMILES): COC(=O)c1c(COCC2CN(C(=O)c3cncs3)CC23CN(C(=O)[C@H]2CC2(C)C)C3)cccc1-c1ccc(C(F)(F)F)cc1 (stereo partly drawn) [Compound I-5, methyl 3-(((2-((S)-2,2-dimethylcyclopropane-1-carbonyl)-6-(thiazole-5-carbonyl)-2,6-diazaspiro[3.4]octan-8-yl)methoxy)methyl)-4′-(trifluoromethyl)-[1,1′-biphenyl]-2-carboxylate]
pIC50 (Kuramochi cells RB-WT): 5.00 to 5.30 | pIC50 (CDK2/Cyclin E1 [1]): 5.30 to 6.30 | pIC50 (CDK2/Cyclin E1 [2]): 7.00 to 8.00

Structure (SMILES): CC1(C)C[C@@H]1C(=O)N1CC2(CN(C(=O)c3cnn(Cc4ccc(C(=O)O)cc4)c3)CC2COCc2cccc(-c3ccc(C(F)(F)F)cc3)n2)C1 (stereo partly drawn) [Compound I-6, 4-((4-(2-((S)-2,2-dimethylcyclopropane-1-carbonyl)-8-(((6-(4-(trifluoromethyl)phenyl)pyridin-2-yl)methoxy)methyl)-2,6-diazaspiro[3.4]octane-6-carbonyl)-1H-pyrazol-1-yl)methyl)benzoic acid]
pIC50 (Kuramochi cells RB-WT): < 5.00 | pIC50 (CDK2/Cyclin E1 [1]): < 5.00 | pIC50 (CDK2/Cyclin E1 [2]): 5.00 to 6.00

Structure (SMILES): CC1(C)C[C@@H]1C(=O)N1CC2(CN(C(=O)c3cncs3)C[C@H]2COCc2ccn[nH]2)C1 [Compound I-29, ((S)-8-(((1H-pyrazol-5-yl)methoxy)methyl)-2-((S)-2,2-dimethylcyclopropanecarbonyl)-2,6-diazaspiro[3.4]octan-6-yl)(thiazol-5-yl)methanone]
pIC50 (Kuramochi cells RB-WT): < 5.00 | pIC50 (CDK2/Cyclin E1 [2]): < 5.00

Structure (SMILES): CC1(C)C[C@@H]1C(=O)N1CC2(CN(C(=O)c3cncs3)C[C@H]2COc2cccc3ccc(C4CCOCC4)nc23)C1 [Compound I-30, ((S)-2-((S)-2,2-dimethylcyclopropanecarbonyl)-8-(((2-(tetrahydro-2H-pyran-4-yl)quinolin-8-yl)oxy)methyl)-2,6-diazaspiro[3.4]octan-6-yl)(thiazol-5-yl)methanone]
pIC50 (Kuramochi cells RB-WT): < 5.00 | pIC50 (CDK2/Cyclin E1 [2]): 5.00 to 6.00

Structure (SMILES): Cc1c(COC[C@@H]2CN(C(=O)c3cncs3)CC23CN(C(=O)[C@H]2CC2(C)C)C3)cccc1C1CCOCC1 [Compound I-31, ((S)-2-((S)-2,2-dimethylcyclopropanecarbonyl)-8-(((2-methyl-3-(tetrahydro-2H-pyran-4-yl)benzyl)oxy)methyl)-2,6-diazaspiro[3.4]octan-6-yl)(thiazol-5-yl)methanone]
pIC50 (Kuramochi cells RB-WT): 5.00 to 5.30 | pIC50 (CDK2/Cyclin E1 [1]): 5.30 to 6.30 | pIC50 (CDK2/Cyclin E1 [2]): 6.00 to 7.00

Structure (SMILES): CC1(C)C[C@@H]1C(=O)N1CC2(CN(C(=O)c3cncs3)C[C@H]2COCC2CCCCO2)C1 (stereo partly drawn) [Compound I-32, ((S)-2-((S)-2,2-dimethylcyclopropane-1-carbonyl)-8-(((tetrahydro-2H-pyran-2-yl)methoxy)methyl)-2,6-diazaspiro [3.4]octan-6-yl) (thiazol-5-yl) methanone]
pIC50 (Kuramochi cells RB-WT): < 5.00 | pIC50 (CDK2/Cyclin E1 [2]): < 5.00

Structure (SMILES): CC1(C)C[C@@H]1C(=O)N1CC2(CN(C(=O)c3cncs3)C[C@H]2COCc2cccc(-c3ccc(C(F)(F)F)cc3F)n2)C1 [Compound I-33, ((S)-2-((S)-2,2-dimethylcyclopropane-1-carbonyl)-8-(((6-(2-fluoro-4-(trifluoromethyl)phenyl)pyridin-2-yl)methoxy)methyl)-2,6-diazaspiro[3.4]octan-6-yl)(thiazol-5-yl) methanone]
pIC50 (Kuramochi cells RB-WT): 5.00 to 5.30 | pIC50 (CDK2/Cyclin E1 [2]): 7.00 to 8.00

Structure (SMILES): CC(OCc1cccc(C2CCOCC2)n1)[C@@H]1CN(C(=O)c2cncs2)CC12CN(C(=O)[C@H]1CC1(C)C)C2 (stereo partly drawn) [Compound I-35, ((S)-2-((S)-2,2-dimethylcyclopropane-1-carbonyl)-8-(1-((6-(tetrahydro-2H-pyran-4-yl)pyridin-2-yl)methoxy)ethyl)-2,6-diazaspiro [3.4]octan-6-yl) (thiazol-5-yl) methanone]
pIC50 (Kuramochi cells RB-WT): < 5.00 | pIC50 (CDK2/Cyclin E1 [2]): < 5.00

Continued, in another order:

pIC50 (CDK2/Cyclin E1 [2]): < 5.00
Structure (SMILES): CC1(C)C[C@@H]1C(=O)N1CC2(CN(C(=O)c3cncs3)C[C@H]2COCc2ccnn2C2CCCC2)C1 [Compound I-37, ((S)-8-(((1-cyclopentyl-1H-pyrazol-5-yl)methoxy)methyl)-2-((S)-2,2-dimethylcyclopropanecarbonyl)-2,6-diazaspiro[3.4]octan-6-yl)(thiazol-5-yl)methanone]
pIC50 (Kuramochi cells RB-WT): < 5.00

pIC50 (CDK2/Cyclin E1 [2]): 5.00 to 6.00
Structure (SMILES): CC1(C)C[C@@H]1C(=O)N1CC2(CN(C(=O)c3cncs3)C[C@H]2COCc2ccc(Cl)c(Cl)c2)C1 [Compound I-40, ((S)-8-(((3,4-dichlorobenzyl)oxy)methyl)-2-((S)-2,2-dimethylcyclopropanecarbonyl)-2,6-diazaspiro[3.4]octan-6-yl)(thiazol-5-yl)methanone]
pIC50 (Kuramochi cells RB-WT): < 5.00

pIC50 (CDK2/Cyclin E1 [2]): 5.00 to 6.00
Structure (SMILES): CC1(C)C[C@@H]1C(=O)N1CC2(CN(C(=O)c3cncs3)C[C@H]2COCc2ccc(C(F)(F)F)cc2)C1 [Compound I-41, ((S)-2-((S)-2,2-dimethylcyclopropane-1-carbonyl)-8-(((4-(trifluoromethyl)benzyl)oxy)methyl)-2,6-diazaspiro[3.4]octan-6-yl)(thiazol-5-yl)methanone]
pIC50 (Kuramochi cells RB-WT): < 5.00

pIC50 (CDK2/Cyclin E1 [2]): 5.00 to 6.00
Structure (SMILES): CC1(C)C[C@@H]1C(=O)N1CC2(CN(C(=O)c3cncs3)C[C@H]2COCc2cncc(C3CCOCC3)c2)C1 [Compound I-42, ((S)-2-((S)-2,2-dimethylcyclopropane-1-carbonyl)-8-(((5-(tetrahydro-2H-pyran-4-yl)pyridin-3-yl)methoxy)methyl)-2,6-diazaspiro[3.4]octan-6-yl)(thiazol-5-yl)methanone]
pIC50 (Kuramochi cells RB-WT): < 5.00

pIC50 (CDK2/Cyclin E1 [2]): 5.00 to 6.00
Structure (SMILES): CC1(C)C[C@@H]1C(=O)N1CC2(CN(C(=O)c3cncs3)C[C@H]2COCc2cc(C3CCOCC3)ccn2)C1 [Compound I-43, ((S)-2-((S)-2,2-dimethylcyclopropane-1-carbonyl)-8-(((4-(tetrahydro-2H-pyran-4-yl)pyridin-2-yl)methoxy)methyl)-2,6-diazaspiro[3.4]octan-6-yl)(thiazol-5-yl)methanone]
pIC50 (Kuramochi cells RB-WT): < 5.00

pIC50 (CDK2/Cyclin E1 [2]): 5.00 to 6.00
Structure (SMILES): CC1(C)C[C@@H]1C(=O)N1CC2(CN(C(=O)c3cncs3)C[C@H]2COCc2cccc(C(F)(F)F)c2)C1 [Compound I-44, ((S)-2-((S)-2,2-dimethylcyclopropanecarbonyl)-8-(((3-(trifluoromethyl)benzyl)oxy)methyl)-2,6-diazaspiro[3.4]octan-6-yl)(thiazol-5-yl)methanone]
pIC50 (Kuramochi cells RB-WT): < 5.00

pIC50 (CDK2/Cyclin E1 [2]): < 5.00
Structure (SMILES): CC1(C)C[C@@H]1C(=O)N1CC2(CN(C(=O)c3cncs3)C[C@H]2COCc2ccnc(C3CCOCC3)c2)C1 [Compound I-45, ((S)-2-((S)-2,2-dimethylcyclopropane-1-carbonyl)-8-(((2-(tetrahydro-2H-pyran-4-yl)pyridin-4-yl)methoxy)methyl)-2,6-diazaspiro[3.4]octan-6-yl)(thiazol-5-yl)methanone]
pIC50 (Kuramochi cells RB-WT): < 5.00

pIC50 (CDK2/Cyclin E1 [2]): < 5.00
Structure (SMILES): CC1(C)C[C@@H]1C(=O)N1CC2(C1)CN(c1cccc3ncsc13)CC2COCc1cccc(C2CCOCC2)n1 (some centres unmarked) [Compound I-46]
pIC50 (Kuramochi cells RB-WT): < 5.00

pIC50 (CDK2/Cyclin E1 [2]): < 5.00
Structure (SMILES): CC1(C)C[C@@H]1C(=O)N1CC2(C1)CN(c1ncnc3ncsc13)CC2COCc1cccc(C2CCOCC2)n1 (stereo partly drawn) [Compound I-47, ((S)-2,2-dimethylcyclopropyl)(8-(((6-(tetrahydro-2H-pyran-4-yl)pyridin-2-yl)methoxy)methyl)-6-(thiazolo[4,5-d]pyrimidin-7-yl)-2,6-diazaspiro[3.4]octan-2-yl)methanone]
pIC50 (Kuramochi cells RB-WT): < 5.00

pIC50 (CDK2/Cyclin E1 [2]): 5.00 to 6.00
Structure (SMILES): CC1(C)C[C@@H]1C(=O)N1CC2(CN(C(=O)c3cncs3)CC2COCc2cccc(C3=CCOCC3)n2)C1 (some centres unmarked) [Compound I-48]
pIC50 (Kuramochi cells RB-WT): < 5.00

pIC50 (CDK2/Cyclin E1 [2]): 5.00 to 6.00
Structure (SMILES): CC1(C)C[C@@H]1C(=O)N1CC2(CN(C(=O)c3cncs3)C[C@@H]2COCc2cccc(C3CCOCC3)n2)C1 [Compound I-64, ((R)-2-((S)-2,2-dimethylcyclopropane-1-carbonyl)-8-(((6-(tetrahydro-2H-pyran-4-yl)pyridin-2-yl)methoxy)methyl)-2,6-diazaspiro[3.4]octan-6-yl)(thiazol-5-yl) methanone]
pIC50 (Kuramochi cells RB-WT): < 5.00

From patent publication US20260034123A1 (Cedilla Therapeutics, Inc., priority 2022, published 2026)
